# Data from patent publication US10945972B2, “Particulate materials” (Nektar Therapeutics, priority 2002, dated 2021).
# Where two headings read alike, the source gives them in different places.
# Experiments:
# [1] = BET nitrogen adsorption specific surface area (Example 2); type: physicochemical
# Protocol: Data on specific surface areas required for IGC studies were determined by BET nitrogen adsorption using a Surface Area Analyzer Coulter SA 3100 (Coulter Corp., Miami, Fla., USA). Samples were placed in glass sample holders and out-gassed with helium (purity >99.999%) at 40° C. for 16 hours before analysis. Nitrogen (purity >99.999%) was used as adsorbate and BET surface area was recorded as specific surface area of the samples. All measurements were performed in triplicate using the same batch of each material.
# [2] = Inverse gas chromatography of SX powders (Example 2); settings: for KA: acidity parameter; for γs^D (mJ/m^2): column at 40° C.; for −ΔGA^SP (kJ/mol) Acetone: probe acetone; for −ΔGA^SP (kJ/mol) Chloroform: probe chloroform; for −ΔGA^SP (kJ/mol) Diethyl ether: probe diethyl ether; for −ΔGA^SP (kJ/mol) Ethyl acetate: probe ethyl acetate; for −ΔGA^SP (kJ/mol) Tetrahydrofuran: probe tetrahydrofuran
# [3] = Laser diffraction particle size analysis HELOS/RODOS (Example 2); type: physicochemical; settings: for mean particle size d4,3: LD technique
# Protocol: The instrument consisted of laser diffraction sensor HELOS and dry-powder air-dispersion system RODOS (Sympatec GmbH. Germany) with WINDOX OS computer interface. The dispersion process was controlled by means of adjusting pressure of the compressed air flow between 0.5 and 5 bar. […] All measurements were performed in triplicate. The particle shape factor, f, was calculated as f=Sv/Sv*. where Sv is the experimental specific surface area and Sv* is the specific surface area determined using the LD instrument assuming the particle sphericity.
# [4] = Particle size by AeroSizer time-of-flight (Example 1); type: physicochemical; settings: aerodynamic-equivalent volume mean diameter
# Protocol: (§1) PSD measurements were performed using firstly, AEROSIZER® time-of-flight instrument equipped with AERO-[…]® (TSI Inc., Minneapolis. USA) and secondly, laser diffraction sensor Helos with dry-powder air-dispersion system Rodos (Sympatec GmbH. Germany). The volume mean particle diameter, VMD, was obtained for both instruments using software options. In the general case of non-spherical particles, these instruments cannot provide the exact value of VMD, however, the time-of-flight technique gives an aerodynamic-equivalent particle diameter, whereas the laser diffraction method provides the geometric projection-equivalent diameter. These diameters afford the complementary information on PSD and therefore can be used for comparative size analysis.
# [5] = Inverse gas chromatography surface energy (Example 1); type: physicochemical; settings: 303K; for ΔGA (kJ/mol) Diethyl ether: probe diethyl ether
# Text: For TBS and FHBr powders, IGC was done using a Hewlett Packard Series 6890 instrument which was specifically modified for IGC measurements by Surface Measurement Systems Ltd (Manchester, UK). The IGC method is described in detail by Tong et al. 2001. (Tong H. H. Y., B. Y. Shekunov, P. York, A. H. L. Chow, 2001. Pharm. Res. 18, 852.) Triplicate measurements in separate packed columns were made. […] The γS^D and ΔGA values were obtained at 303K.
# [6] = Triboelectrification in cyclone separator, charge and adhesion; type: physicochemical
# Protocol: (§2) Triboelectrification was undertaken against a stainless steel contact surface using either a turbula mixer or a cyclone separator. Triboelectrification in a turbula mixer (Glen Creston, UK) was carried out by agitating a powder sample for 5 minutes at 30 rpm in a 100 ml stainless steel vessel at ambient temperature and relative humidity. A sample was poured in a reproducible manner into a Faraday well connected to an electrometer (Keithley 610, Keithley Instruments, Reading, UK). Charge and mass of sample was then recorded to give specific charge before and after triboelectrification. % w/w adhesion to the inner surface of the mixing vessel was calculated from the original mass of sample and the mass of sample poured into the Faraday well. During triboelectrification in a cyclone separator, a powder was fed from a steel vibratory table into a venturi funnel. Compressed air (velocity 8 m/s. relative humidity below 10%, ambient temperature) was used to convey the powder from the venturi along a horizontal pipe into the cyclone separator. The Faraday well and force compensation load cell was fitted at the base of the cyclone and used to collect charged particles. Final specific charge was recorded for non-adhered powder residing in the Faraday well and, where possible, powder adhering to the cyclone wall was dislodged by a stream of air and its charge and mass recorded. In both cases, the results were obtained from triplicate measurements.
# [7] = Triboelectrification in turbula mixer, charge and adhesion; type: physicochemical; settings: for Q (nCg^−1) After mixing: 5 minutes at 30 rpm
# Protocol: as §2
# [8] = Particle size by Helos/Rodos laser diffraction (Example 1); type: physicochemical; settings: geometric projection-equivalent volume mean diameter
# Protocol: as §1
# [9] = Bulk powder density (Example 2); type: physicochemical
# [10] = Electrostatic charge in Faraday well (Example 3); type: physicochemical
# Text: Surface charge was examined by placing weighed portions of the samples in a Faraday well to measure their electrostatic charge.
# [11] = Inverse gas chromatography of TBS (Example 8); type: physicochemical
# Protocol: An empty GC column was uniformly packed with the powder of interest (TBS). Pre-silanized commercially available straight glass columns of 30 cm length with a 3 mm internal diameter were used in this investigation. The silanation procedure was necessary to minimize active sites on the inner glass surfaces, which strongly interact with polar probes. Each column was packed at the detector end with a small amount of silanised glass wool, was clipped to a stand and powder was added through a glass funnel with the aid of a mechanical column packer (tapping) to improve powder flow and remove any air gaps. […] A. Hewlett Packard 6890 Series Gas Chromatograph (GC) (Hewlett Packard, Penna, USA) oven equipped with an autosampler was used to control the solvent temperature. The 6890 GC data acquisition system was used to record data from a thermal conductivity detector (TCD) and flame ionisation detector (FID) with the instrument modified for IGC by Surface Measurement Systems (SMS), Manchester, UK. The combination of detectors allowed sensitive analysis of both organic vapour elution and water (although RH was not raised above 0% for these experiments).
# The whole system was fully automated by control software (SMS iGC Controller v1.3) and the data analyzed using SMS iGC Analysis macros. Prior to analysis, each column was equilibrated at 30° C. and 0% relative humidity (RH) for 5 hours by passing dry helium gas through the column. Helium gas was also used as the carrier gas. Hydrogen and compressed air flow rates were set at 40 and 450 ml min respectively for the FID. The chromatograph injection port was maintained at 80° C., TCD detector at 150° C. and the FID detector at 150° C. Column temperature was set at 30° C. throughout analysis. Data were obtained by flowing helium gas at 10 ml min^−1 through the sinalized glass column packed with a known weight of powdered material and injecting small amounts (concentration P/Po=0.05) of a range of probe vapors with different polarities. The retention times of the probes were measured using SMS iGC Controller v1.3 software, at infinite dilution or near zero surface coverage (equivalent to 10^−4-10^−7 μl of liquid) where retention is independent of the quantity of probe injected. For each sample, two columns were prepared and analysed by employing a method based on standard settings, which allows the precise control and measurement of experimental variables. This is essential in producing meaningful results. The data were used to calculate the dispersive and non-dispersive forces acting at TBS particle surfaces using the method developed by Schultz and co-workers (J. Schultz, L. Lavielle and C. Martin. The role of the interface in carbon fibre-epoxy composites, J. Adhesion, 23, 45-60 (1987)).
# [12] = Simple adhesion test in rotated glass jar (Example 3); type: physicochemical; settings: glass jar rotated for 5 minutes
# Protocol: In this test, a small quantity of powder was weighed into a screw topped glass jar and the jar rotated for 5 minutes. The non-adhering powder was then tipped from the jar and weighed and the percentage powder adhering to the walls of the jar calculated.
# [13] = Differential scanning calorimetry (Example 8); type: physicochemical; settings: DSC, 10° C. min^−1
# Protocol: Prior to sample analysis, a baseline was obtained which was used as a background. […] Temperature and enthalpy were calibrated with the standard materials indium (melting point=156.6° C.) and zinc (melting point=419.5° C.). Samples (1-10) were accurately weighed into pierced, crimped aluminium pans and heated at 10° C. min^−1 over a heating range of 25-290° C. under a nitrogen purge. A chiller unit was used in conjunction with the calorimeter to attain the lower temperatures.
# [14] = Laser diffraction HELOS/RODOS of TBS (Example 8); type: physicochemical; settings: 2 bar
# Protocol: A small amount of TBS powder was analysed using a laser diffraction RODOS/VIBRI dispersing system (HELOS/RODOS, Sympatec GmbH, Clausthal-Zellerfeld, Germany). The instrument consisted of a laser sensor HELOS and a RODOS dry-powder air-dispersion system (Sympatec GmbH, Clausthal-Zellerfeld, Germany). Different measurement ranges of the laser sensor were provided by interchangeable objectives R1 (0.1-35 μm) and R2 (0.25-87.5 μm). The rate of powder dispersion was controlled by adjusting the pressure of the compressed air flow. A pressure of 2 bar was sufficient to achieve deagglomeration of primary particles without attrition.
# [15] = AEROSIZER time-of-flight of TBS (Example 8); type: physicochemical
# Protocol: The TBS samples were also analysed using an AEROSIZER™ (Amherst Process Instruments, Amherst, Mass., USA), provided with pulse jet disperser, the AERODISPERSER™, to introduce the powders to the instrument. The measurement range of the AEROSIZER™ is nominally from 0.2 to 200 μm of aerodynamic diameter with the standard 750 μm diameter tapered nozzle. The micronized and SEDS™ TBS samples were analyzed for 300 seconds in triplicate using normal deagglomeration conditions, feed rate (5000 particles per second) and medium shear force (0.5 psi).
molecule,measurement,setting,value
"OCc1cc(C(O)CNCCCCCCOCCCCc2ccccc2)ccc1O (centres unmarked) [G-SX, Salmeterol xinafoate]",SV (specific surface area),[1],10.699
same,KA,[2],0.233
same,γs^D (mJ/m^2),[2],36.972 mJ/m^2
same,−ΔGA^SP (kJ/mol) Acetone,[2],5.454 kJ/mol
same,−ΔGA^SP (kJ/mol) Chloroform,[2],1.885 kJ/mol
same,−ΔGA^SP (kJ/mol) Diethyl ether,[2],2.958 kJ/mol
same,−ΔGA^SP (kJ/mol) Ethyl acetate,[2],4.739 kJ/mol
same,−ΔGA^SP (kJ/mol) Tetrahydrofuran,[2],4.854 kJ/mol
"OCc1cc(C(O)CNCCCCCCOCCCCc2ccccc2)ccc1O (centres unmarked) [SX Micronised, salmeterol xinafoate, reference compound]","mean particle size d4,3",[3]; listed as M-SX,1.8 μm
same,"f (particle shape factor, f=Sv/Sv*)",[3]; listed as M-SX,2.80
same,VMD (μm) (Time of flight),[4],1.2 μm
same,γs^D (mJ/m^2),[5],40.49 mJ/m^2
same,ΔGA (kJ/mol) Acetone,[5]; probe acetone,15.24 kJ/mol
same,ΔGA (kJ/mol) Chloroform,[5]; probe chloroform,14.78 kJ/mol
same,ΔGA (kJ/mol) Diethyl ether,[5],14.20 kJ/mol
same,ΔGA (kJ/mol) Ethyl acetate,[5]; probe ethyl acetate,17.46 kJ/mol
same,"AD (% w/w), fraction of adhered material",[6]; listed as M-SX,16.7 % w/w
same,Q (nCg^−1) After mixing,[6]; listed as M-SX,−49.7 nCg^−1
same,Q (nCg^−1) Before mixing,[6]; listed as M-SX,−48.4 nCg^−1
same,Q (nCg^−1) After mixing,[7]; listed as M-SX,−42.6 nCg^−1
same,"AD (% w/w), fraction of adhered material",[7]; listed as M-SX,27 % w/w
same,Q (nCg^−1) Before mixing,[7]; listed as M-SX,−12.1 nCg^−1
same,SV (specific surface area),[1]; listed as M-SX,9.243
same,VMD (μm) (laser diffraction),[8],1.69 μm
same,bulk powder density,[9]; listed as M-SX,0.5 g/mL
same,KA,[2]; listed as M-SX,0.172
same,γs^D (mJ/m^2),[2]; listed as M-SX,38.285 mJ/m^2
same,−ΔGA^SP (kJ/mol) Acetone,[2]; listed as M-SX,4.560 kJ/mol
same,−ΔGA^SP (kJ/mol) Chloroform,[2]; listed as M-SX,0.810 kJ/mol
same,−ΔGA^SP (kJ/mol) Diethyl ether,[2]; listed as M-SX,2.774 kJ/mol
same,−ΔGA^SP (kJ/mol) Ethyl acetate,[2]; listed as M-SX,3.995 kJ/mol
same,−ΔGA^SP (kJ/mol) Tetrahydrofuran,[2]; listed as M-SX,3.609 kJ/mol
"OCc1cc(C(O)CNCCCCCCOCCCCc2ccccc2)ccc1O (centres unmarked) [SX SEDS, salmeterol xinafoate]","mean particle size d4,3",[3]; listed as S-SX,3.5 μm
same,"f (particle shape factor, f=Sv/Sv*)",[3]; listed as S-SX,3.78
same,VMD (μm) (Time of flight),[4],1.6 μm
same,γs^D (mJ/m^2),[5],34.55 mJ/m^2
same,ΔGA (kJ/mol) Diethyl ether,[5],12.65 kJ/mol
same,"AD (% w/w), fraction of adhered material",[6]; listed as S-SX,5.5 % w/w
same,Q (nCg^−1) After mixing,[6]; listed as S-SX,−34.6 nCg^−1
same,Q (nCg^−1) Before mixing,[6]; listed as S-SX,4.9 nCg^−1
same,Q (nCg^−1) After mixing,[7]; listed as S-SX,−0.17 nCg^−1
same,"AD (% w/w), fraction of adhered material",[7]; listed as S-SX,1.5 % w/w
same,Q (nCg^−1) Before mixing,[7]; listed as S-SX,−0.52 nCg^−1
same,SV (specific surface area),[1]; listed as S-SX,7.040
same,VMD (μm) (laser diffraction),[8],3.56 μm
same,bulk powder density,[9]; listed as S-SX,about 0.1 g/cm^3
same,magnitude of γS^D smaller than for M-SX and G-SX,[2],15%
same,KA,[2]; listed as S-SX,0.110
same,γs^D (mJ/m^2),[2]; listed as S-SX,32.476 mJ/m^2
same,−ΔGA^SP (kJ/mol) Acetone,[2]; listed as S-SX,3.797 kJ/mol
same,−ΔGA^SP (kJ/mol) Chloroform,[2]; listed as S-SX,0.153 kJ/mol
same,−ΔGA^SP (kJ/mol) Dichloromethane,[2]; probe dichloromethane,2.808 kJ/mol
same,−ΔGA^SP (kJ/mol) Diethyl ether,[2]; listed as S-SX,1.488 kJ/mol
same,−ΔGA^SP (kJ/mol) Ethyl acetate,[2]; listed as S-SX,2.705 kJ/mol
same,−ΔGA^SP (kJ/mol) Tetrahydrofuran,[2]; listed as S-SX,2.446 kJ/mol
"salbutamol sulphate [Micronised, reference compound]",Electrostatic Charge (nC/g),[10],−42.6 nC/g
same,KA,[11],0.892
same,γs^D mJm^−2,"[11]; 30° C., 0% RH",58.61 mJm^−2
same,−ΔGA^SP (kJ/mol) Acetone,[11]; probe acetone,12.57 kJ/mol
same,−ΔGA^SP (kJ/mol) Chloroform,[11]; probe chloroform,1.79 kJ/mol
same,−ΔGA^SP (kJ/mol) Dioxane,[11]; probe dioxane,15.96 kJ/mol
same,−ΔGA^SP (kJ/mol) Ethyl acetate,[11]; probe ethyl acetate,16.01 kJ/mol
same,−ΔGA^SP (kJ/mol) Toluene,[11]; probe toluene,3.42 kJ/mol
same,Relative Powder Adhesion (to container walls),[12],18.6
same,Enthalpy of Fusion,[13],121.76 J/g
same,"Sympatec D4, 3 (μm)",[14],3.04 μm
same,"Aerosizer D4, 3 (μm)",[15],2.69 μm
salbutamol sulphate [SEDS],Electrostatic Charge (nC/g),[10],−0.2 nC/g
same,Relative Powder Adhesion (to container walls),[12],1.0
salbutamol sulphate [Unprocessed],Electrostatic Charge (nC/g),[10],−23.1 nC/g
same,Relative Powder Adhesion (to container walls),[12],8.6
